Data reported in patent US6727287B2, “Toluene sulfonamide-containing anti-tumor composition and method of use thereof” (PTS International, Inc., priority 2001, dated 2004).

Tested on: normal (i.e., non-neoplastic) cells
Assay: Exposure of normal (non-neoplastic) cells to para-toluene sulfonamide
Settings: normal (non-neoplastic) cells exposed to the compound

histopathological changes in normal cells: almost no histopathological changes
Structure (SMILES): Cc1ccc(S(N)(=O)=O)cc1 [para-toluene sulfonamide]
